One series in a line: in vitro. As to conditions: human, hela cells, % viability.
A word on the viability: it is a read-out of living cells in per cent, often relative to untreated cells. As for `COc1cc(-n2cnc3cc(-c4ccc(Cl)cc4)sc3c2=O)ccc1OCCN1CCCC1` [CBK089844C], the viability at 28.5 h, 10 µM amounted to 40.7%.
In the case of `CNC(=O)c1cc2ncc(C(F)(F)F)cc2s1` [CBK089882], the viability at 28.5 h, 10 µM was 93.1%.
With `NC(=O)c1sc2cc(C(F)(F)F)cnc2c1-c1cccs1` [CBK089891], the viability at 28.5 h, 10 µM is 88.2%.
With `Cn1nc2c(c1O)CCCC2` [CBK089897], the viability at 28.5 h, 10 µM came to 102%.
Turning to `CCOc1cc(/C=N/O)ccc1OC(=O)c1cccc([N+](=O)[O-])c1` [CBK090036], the viability at 28.5 h, 10 µM was determined as 107%.
Turning to `Cc1ccc(C(C)(C)C)c(OC(=O)c2cnc(C)cn2)c1` [CBK090261], the viability at 28.5 h, 10 µM is 96.5%.
Consider `N#CCc1ccc(OC(=O)c2cccnc2)cc1` [CBK090304], for which the viability at 28.5 h, 10 µM was 105%.
For `Nc1nccnc1C(=O)Oc1ccccc1` [CBK090311], the viability at 28.5 h, 10 µM stood at 88.1%.
For `O=C(Oc1ccccc1)c1cc(Cl)cnc1Cl` [CBK090320], the viability at 28.5 h, 10 µM was found to be 101%.
As to `Cc1ccc(OC(=O)c2cc(Cl)cnc2Cl)cc1` [CBK090321], the viability at 28.5 h, 10 µM was 84.5%.
With `O=C(Oc1ccccc1)c1ccnc(Cl)c1` [CBK090322], the viability at 28.5 h, 10 µM was 87.2%.
With `Nc1ncc(-c2ccc(C(F)(F)F)cc2)nc1-c1ccc(C(=O)N2CCOCC2)cc1` [CBK090524], the viability at 28.5 h, 10 µM stood at 103%.
Consider `COc1cc(Nc2cc(-c3ccccc3N(C)C)ncn2)cc(OC)c1OC` [CBK090702], for which the viability at 28.5 h, 10 µM was determined as 64.2%.
As to `COc1cc(Nc2cc(-c3ccco3)ncn2)cc(OC)c1OC` [CBK090706], the viability at 28.5 h, 10 µM came out at 90.3%.
Same read-out and setting: in the case of `COc1cc(Nc2cc(-c3ccc(NC(C)=O)cc3)ncn2)cc(OC)c1OC` [CBK090710] it was 103%.
Same read-out and setting: in the case of `CCOC(=O)Cc1ccc(Nc2cc(-c3ccc(N(C)C)cc3)ncn2)cc1` [CBK090712] it was 31.6%; in that of `CC(=O)Nc1ccc(Nc2cc(-c3ccsc3)ncn2)cc1` [CBK090717], 96.8%.
Regarding `CC(=O)Nc1ccc(Nc2cc(-c3ccc(Cl)cc3)ncn2)cc1` [CBK090720], the viability at 28.5 h, 10 µM was 93.6%.
Consider `CC(=O)Nc1ccc(Nc2cc(-c3ccc(CC(C)C)cc3)ncn2)cc1` [CBK090723], for which the viability at 28.5 h, 10 µM was 99.4%.
Regarding `COc1cccc(Nc2cc(-c3cccc(N)c3)ncn2)c1OC` [CBK090726], the viability at 28.5 h, 10 µM came to 104%.
On the same count and under the same terms, to `COc1cccc(Nc2cc(-c3ccco3)ncn2)c1OC` [CBK090727] belongs 92.2%.
Consider `COc1cccc(Nc2cc(-c3ccc(CC(C)C)cc3)ncn2)c1` [CBK090745], for which the viability at 28.5 h, 10 µM stood at 110%.
On to `Oc1ccc(Nc2cc(-c3ccc(Cl)cc3)ncn2)cc1` [CBK090751], for which the viability at 28.5 h, 10 µM was 94.3%.
Consider `CC(C)Cc1ccc(-c2cc(Nc3ccc(O)cc3)ncn2)cc1` [CBK090754], for which the viability at 28.5 h, 10 µM turned out to be 93.6%.
With `COc1ccc(Nc2cc(-c3ccco3)ncn2)c(OC)c1` [CBK090761], the viability at 28.5 h, 10 µM was 105%.
On to `COc1ccc(-c2cc(Nc3ccc(OC)cc3OC)ncn2)cc1` [CBK090763], for which the viability at 28.5 h, 10 µM is 46.7%.
Consider `Nc1cccc(-c2cc(Nc3ccc(CCO)cc3)ncn2)c1` [CBK090766], for which the viability at 28.5 h, 10 µM came to 104%.
On the same count and under the same terms, to `OCCc1ccc(Nc2cc(-c3ccc4c(c3)OCO4)ncn2)cc1` [CBK090767] belongs 97.8%.
`OCCc1ccc(Nc2cc(-c3cc4ccccc4s3)ncn2)cc1` [CBK090770]: the viability at 28.5 h, 10 µM was 103%.
`OCCc1ccc(Nc2cc(-c3ccco3)ncn2)cc1` [CBK090771]: the viability at 28.5 h, 10 µM is 100%.
Turning to `COc1cc(C)c(Nc2cc(-c3cccc(N(C)C)c3)ncn2)cc1OC` [CBK090780], the viability at 28.5 h, 10 µM was 43.5%.
Turning to `COc1cc(C)c(Nc2cc(-c3ccc(C(N)=O)cc3)ncn2)cc1OC` [CBK090784], the viability at 28.5 h, 10 µM was 98.9%.
On the same count and under the same terms, to `COc1cc(C)c(Nc2cc(-c3ccc(F)c(F)c3)ncn2)cc1OC` [CBK090787] belongs 73.4%; to `COCCNc1cc(-c2ccc(C(C)=O)s2)ncn1` [CBK090791], 115%; to `COCCNc1cc(-c2ccc(SC)cc2)ncn1` [CBK090795], 105%.
As to `COCCNc1cc(-c2ccc(Cl)cc2)ncn1` [CBK090797], the viability at 28.5 h, 10 µM is 96.3%.
Take `COCCNc1cc(-c2ccc(NC(C)=O)cc2)ncn1` [CBK090799]: the viability at 28.5 h, 10 µM was determined as 97.8%.
Same read-out and setting: to `COCCNc1cc(-c2ccc(F)c(F)c2)ncn1` [CBK090800] belongs 100%; to `CN(C)c1cccc(-c2cc(Nc3ccc4c(c3)OCCO4)ncn2)c1` [CBK090808], 66.3%; to `COc1ccc(Nc2cc(-c3ccsc3)ncn2)cc1OC` [CBK090820], 97.2%.
On the same count and under the same terms, to `COc1ccc(Nc2cc(-c3ccco3)ncn2)cc1OC` [CBK090822] belongs 99.5%; to `CCn1c2ccccc2c2cc(Nc3cc(-c4cccc5ccccc45)ncn3)ccc21` [CBK090834], 50.6%; to `CCn1c2ccccc2c2cc(Nc3cc(-c4ccc(OC(F)(F)F)cc4)ncn3)ccc21` [CBK090842], 87.3%.
As for `c1nc(Nc2ccc3[nH]ccc3c2)cc(-c2ccc(N3CCOCC3)cc2)n1` [CBK090851], the viability at 28.5 h, 10 µM was determined as 91.1%.
Regarding `c1ccc2cc(-c3cc(Nc4ccc5[nH]ccc5c4)ncn3)ccc2c1` [CBK090853], the viability at 28.5 h, 10 µM turned out to be 80.1%.
For `FC(F)(F)c1cc(-c2cc(Nc3ccc4[nH]ccc4c3)ncn2)cc(C(F)(F)F)c1` [CBK090855], the viability at 28.5 h, 10 µM came to 97.9%.
Consider `c1ccc(COc2ccccc2-c2cc(Nc3ccc4[nH]ccc4c3)ncn2)cc1` [CBK090856], for which the viability at 28.5 h, 10 µM amounted to 107%.
Same read-out and setting: to `c1ccc(COc2ccc(-c3cc(Nc4ccc5[nH]ccc5c4)ncn3)cc2)cc1` [CBK090857] belongs 111%.
For `c1ccc2sc(-c3cc(Nc4ccc5[nH]ccc5c4)ncn3)cc2c1` [CBK090858], the viability at 28.5 h, 10 µM stood at 82.5%.
Still for that read-out and setting: in the case of `O=[N+]([O-])c1cccc(-c2cc(Nc3ccc4[nH]ccc4c3)ncn2)c1` [CBK090860] it was 108%.
`CN(C)c1ccccc1-c1cc(Nc2ccc(C(C)(C)C)cc2)ncn1` [CBK090872]: the viability at 28.5 h, 10 µM was 95.4%.
Turning to `CCNc1cc(-c2ccc(N3CCOCC3)cc2)ncn1` [CBK090876], the viability at 28.5 h, 10 µM was found to be 115%.
Take `CCNc1cc(-c2cccc(N(C)C)c2)ncn1` [CBK090878]: the viability at 28.5 h, 10 µM stood at 97.8%.
For the compound `CCNc1cc(-c2ccc(Cl)cc2)ncn1` [CBK090880], the viability at 28.5 h, 10 µM turned out to be 99%.
With `CCNc1cc(-c2cncc(OC)c2)ncn1` [CBK090881], the viability at 28.5 h, 10 µM was 101%.
With `CCNc1cc(-c2ccc(OC)cc2)ncn1` [CBK090883], the viability at 28.5 h, 10 µM was found to be 89%.
Regarding `CCNc1cc(-c2ccc(CC(C)C)cc2)ncn1` [CBK090884], the viability at 28.5 h, 10 µM stood at 102%.
For `Nc1cccc(-c2cc(Nc3ccc(Cl)cc3)ncn2)c1` [CBK090886], the viability at 28.5 h, 10 µM came out at 91.7%.
Regarding `CCCCCOc1ccc(Nc2cc(-c3ccccc3N(C)C)ncn2)cc1` [CBK090890], the viability at 28.5 h, 10 µM was 81.9%.
In the case of `CCCCCOc1ccc(Nc2cc(-c3ccco3)ncn2)cc1` [CBK090892], the viability at 28.5 h, 10 µM is 92.6%.
Take `CN1CCN(c2ccc(-c3cc(NC4CCCCC4)ncn3)cn2)CC1` [CBK090899]: the viability at 28.5 h, 10 µM came to 96.7%.
Take `CN(C)c1cccc(-c2cc(NC3CCCCC3)ncn2)c1` [CBK090900]: the viability at 28.5 h, 10 µM worked out at 109%.
Still for that read-out and setting: in the case of `Clc1ccc(-c2cc(NC3CCCCC3)ncn2)cc1` [CBK090902] it was 101%; in that of `Nc1cccc(-c2cc(Nc3cccc(OCc4ccccc4)c3)ncn2)c1` [CBK090915], 113%; in that of `c1ccc(Oc2ccc(Nc3cc(-c4ccc(N5CCOCC5)cc4)ncn3)cc2)cc1` [CBK090923], 83.3%.
As to `c1ccc(-c2cccc(-c3cc(Nc4ccc(N5CCOCC5)cc4)ncn3)c2)cc1` [CBK090930], the viability at 28.5 h, 10 µM worked out at 90.2%.
Turning to `COc1cc(-c2cc(Nc3ccc(N(C)C)cc3)ncn2)cc(OC)c1OC` [CBK090945], the viability at 28.5 h, 10 µM was 38.7%.
Turning to `CN(C)c1ccc(Nc2cc(-c3ccco3)ncn2)cc1` [CBK090946], the viability at 28.5 h, 10 µM was determined as 90.3%.
The same measure, in the same setting: in the case of `Cc1ccc(S(=O)(=O)Nc2ccc(Nc3cc(-c4ccc(CNC(=O)OC(C)(C)C)cc4)ncn3)cc2)cc1` [CBK090967] it was 96.8%; in that of `Cc1ccc(S(=O)(=O)Nc2ccc(Nc3cc(-c4cccc5oc6ccccc6c45)ncn3)cc2)cc1` [CBK090977], 91.1%.
For `Cc1ccc(S(=O)(=O)Nc2ccc(Nc3cc(-c4cccc([N+](=O)[O-])c4)ncn3)cc2)cc1` [CBK090983], the viability at 28.5 h, 10 µM worked out at 109%.
Take `COc1cncc(-c2cc(Nc3ccc(NS(=O)(=O)c4ccc(C)cc4)cc3)ncn2)c1` [CBK090988]: the viability at 28.5 h, 10 µM worked out at 94.1%.
With `CCN(CCO)c1ccc(Nc2cc(-c3ccsc3)ncn2)cc1` [CBK091000], the viability at 28.5 h, 10 µM stood at 89.5%.
The same measure, in the same setting: to `CCN(CCO)c1ccc(Nc2cc(-c3cccc([N+](=O)[O-])c3)ncn2)cc1` [CBK091002] belongs 92.2%; to `CN(C)c1cccc(Nc2cc(-c3ccc(CCC(=O)O)cc3)ncn2)c1` [CBK091010], 93.1%.
Take `CC(=O)Nc1ccc(-c2cc(Nc3cccc(N(C)C)c3)ncn2)cc1` [CBK091017]: the viability at 28.5 h, 10 µM was 83.7%.
Take `COc1ccc(N2CCN(c3cc(-c4cc(C(F)(F)F)cc(C(F)(F)F)c4)ncn3)CC2)cc1OC` [CBK091020]: the viability at 28.5 h, 10 µM turned out to be 96.1%.
Take `COc1ccc(N2CCN(c3cc(-c4ccccc4OCc4ccccc4)ncn3)CC2)cc1OC` [CBK091024]: the viability at 28.5 h, 10 µM came out at 97.5%.
Take `COc1ccc(N2CCN(c3cc(-c4ccc(CCC(=O)O)cc4)ncn3)CC2)cc1OC` [CBK091030]: the viability at 28.5 h, 10 µM was 94.1%.
On to `COc1ccc(N2CCN(c3cc(-c4cccc([N+](=O)[O-])c4)ncn3)CC2)cc1OC` [CBK091031], for which the viability at 28.5 h, 10 µM stood at 86.4%.

Staying with this series, now noted: human, hela cells, % viability, bulk resorufin, single well.
`CC(=O)Nc1ccc(OC(=O)N2CCCCC2)cc1` [CBK090124]: the viability at 28.5 h, 10 µM came to 99.1%.

These data come from publication PMC12040169 (PLOS Biology, 2025).
